Assay [1] has as its system hepatocyte nuclear factor 1α (HNF-1α). As to conditions: cited from earlier work.
A further assay concerns PCSK9 gene. As to conditions: cited from earlier work.
The next assay relates to Apo B. Conditions: Caco-2 cells, 5-30 μM; cited from earlier work.
Another assay concerns PCSK9. Kind of assay: ELISA for secreted PCSK9 in conditioned media of Huh7 cells. It counts as cell-based, human. As to conditions: Huh7, at the concentrations used for Q3G.
Assay [2] relates to LDLR. As to conditions: HepG2 hepatocytes, 75 μM; cited from earlier work.
For assay [3], the system named is LDLR. In words: Semi-quantitative immunoblotting for LDLR protein in Huh7 cell lysates. It counts as cell-based, human. Conditions: Huh7, at the concentrations of Q3G discussed. On the procedure:
At passage, Huh7 cells were routinely seeded at sub-confluence (˜10^6 cells/10-cm dish) in Dulbecco's modified Eagle's medium (DMEM) containing 10% fetal bovine serum (FBS) or LPDS (for experiments) and 50 μg/ml gentamycin. They were incubated overnight at 37° C., in a humidified 5% CO2-95% air atmosphere. Cells were treated or not with Q3G at defined concentrations and for defined lengths of time. Media were collected and centrifuged at 200 g for 5 min to sediment suspended cells; supernatants were collected and supplemented with 0.33 volumes of a 3×-concentrated PIC. Cell monolayers were rinsed with ice-cold phosphate-buffered saline (PBS); they were overlaid with […] the RIPA lysis buffer (50 mM Tris-HCl, pH 8, 150 mM NaCl, 1% NP-40, 0.5% Na-deoxycholate and 0.1% SDS) supplemented with 1× PIC. After 20 min in an ice bath, the lysates were centrifuged at 14,000 g and 4° C. for 20 min, and supernatants were collected. Conditioned media and lysates were stored at −20° C. until analysis.
Cell lysates were fractionated by SDS-PAGE and electrophoretically transferred onto a polyvinylidene fluoride membrane. The membrane was incubated with a goat antihuman LDLR, rabbit anti-PCSK9, or rabbit anti-SREBP-2 polyclonal antibody at 1:1000, 1:1500, and 1:200 dilutions, respectively, and then with a HRP-conjugated heterospecific secondary antibody against the primary Igs at a 1:2000 dilution. It was probed for HRP reaction using the Western Lightning Chemiluminescence Reagent Plus a chemiluminescence-based revelation kit. The signal was captured on X-ray film and immunoreactive bands analyzed by densitometry on a Syngene's ChemiGenius^2XE Bio Imaging System (Cambridge, Mass.) within the dynamic range of the instrument. The membrane was stripped and reprobed with the anti-β-actin monoclonal primary antibody at 1:20,000 dilution and HRP-conjugated rabbit anti-mouse IgG secondary antibody at a 1:5000 dilution. The densitometric values of β-actin bands were using for normalization of experimental samples.
Huh7 cells, hepatocyte derived cellular carcinoma cells, were incubated for 24 h in medium containing 10% lipoprotein-depleted serum (LPDS) and 0 to 10 μM Q3G. The level of LDLR mRNA was measured by quantitative real-time RT-PCR; that of the LDLR protein by semi-quantitative immunoblotting. Exposure to Q3G increased the intracellular content of LDLR mRNA in a concentration-dependent manner; the increase reached a 2× maximum at 2 μM (P<0.01, relative to no Q3G) (FIG. 3A). The content of the corresponding protein followed a similar pattern, but reached a 4× maximum at 4 μM (P<0.005) (FIG. 3B).
The kinetics of cellular accumulation of LDLR and PCSK9 at 2 μM Q3G was also examined: PCSK9 accumulation in the cells began after a 3-h lag; that of LDLR after 6-h lag (FIG. 6).
Statins induce expression of LDLR and PCSK9. […] We examined whether, at a 5 μM concentration of Q3G, simvastatin at 0.2 and 1 μM could further up regulate LDLR expression in Huh7 cells; and, inversely, whether the flavonol can reduce statin-stimulated PCSK9 secretion secreted by Huh7 cells.

Each structure is given as a SMILES string.

Take `COc1ccc2cc3[n+](cc2c1OC)CCc1cc2c(cc1-3)OCO2` [Berberine]: in assay [1], the “expression of HNF-1α” value is reported as “decreased expression”. In the assay with PCSK9 gene, the PCSK9 gene transcription entry was “reduces”.

Consider `O=c1c(O)c(-c2ccc(O)c(O)c2)oc2cc(O)cc(O)c12` [quercetin aglycone, quercetin], for which the “Apo B secretion” value with Apo B was “inhibit”. Besides, the results for the “effect on PCSK9 secretion” value in the assay on PCSK9 and in the assay with PCSK9 (listed as aglycone form of quercetin) were “not observed” and “failed to affect PCSK9 secretion”, respectively. Moreover, the LDLR expression entry in the assay with LDLR [2] is “up-regulation”. For the same molecule, the “increase in LDLR level” value with LDLR [3] was “not observed”.

Source of the values: patent publication US20150190369A1, “QUERCETIN-3-GLUCOSIDE AND USES THEREOF” (priority 2012, published 2015).
